# Experimental data reported in ChEMBL document CHEMBL3351506, “Synthesis and antiproliferative activity of conjugates of adenosine with muramyl dipeptide and nor-muramyl dipeptide derivatives” (Bioorg Med Chem Lett, 2014).
# How the values were obtained:
# PBMC = assay: Cytotoxicity against human PBMC assessed as inhibition of cell viability after 72 hrs by MTT assay; format: cell-based
# L1210 [1] = assay: Antitumor activity against mouse L1210 cells assessed as inhibition of [3H]thymidine incorporation after 72 hrs; format: functional, cell-based
# L1210 [2] = assay: Cytotoxicity against mouse L1210 cells assessed as inhibition of cell viability after 72 hrs by MTT assay; format: functional, cell-based; conditions: L1210, 72 h
# L1210 [3] = assay: Ratio of IC50 for mouse L1210 cells by MTT assay to EC50 for mouse L1210 cells by [3H]thymidine incorporation assay; format: functional
# L1210 [4] = assay: Antitumor activity against mouse L1210 cells assessed as inhibition of [3H]thymidine incorporation at 0.5 mg/ml after 72 hrs relative to control; format: functional; conditions: values are per cent of control
# L1210 [5] = assay: Cytotoxicity against mouse L1210 cells assessed as inhibition of cell viability after 72 hrs by MTT assay relative to control; format: functional; design: concentration or dose not given beside the values; conditions: values are per cent of control
# [6] = Cytotoxicity against human PBMC assessed as inhibition of cell viability at 0.5 mg/ml after 72 hrs by MTT assay; format: cell-based; conditions: PBMC (peripheral blood mononuclear cells), read-out: INH
# L1210 [7] = assay: Cytotoxicity against mouse L1210 cells assessed as inhibition of cell viability at 0.5 mg/ml after 72 hrs by MTT assay; format: functional; conditions: L1210, 72 h
# L1210 [8] = assay: Antitumor activity against mouse L1210 cells assessed as inhibition of [3H]thymidine incorporation at 0.25 mg/ml after 72 hrs relative to control; format: functional
# [9] = Cytotoxicity against human PBMC assessed as inhibition of cell viability at 0.25 mg/ml after 72 hrs by MTT assay; format: cell-based; conditions: PBMC (peripheral blood mononuclear cells), read-out: INH
# L1210 [10] = assay: Antitumor activity against mouse L1210 cells assessed as inhibition of [3H]thymidine incorporation at 0.215 mg/ml after 72 hrs relative to control; format: functional
# [11] = Cytotoxicity against human PBMC assessed as inhibition of cell viability at 0.21 mg/ml after 72 hrs by MTT assay; format: cell-based; conditions: PBMC (peripheral blood mononuclear cells), read-out: INH
EC50 (L1210 [1]) [µM],Compound,IC50 (PBMC) [µM],IC50 (L1210 [2]) [µM],Ratio IC50/EC50 (L1210 [3]),"growth, % of control at 500 µg/mL (L1210 [4]) [%]","viability, % of control (L1210 [5]) [%]","cytotoxicity at 72 h, 0.5 mg/ml [6] [%]",inhibition at 500 µg/mL (L1210 [7]) [%],inhibition at 250 µg/mL (L1210 [8]) [%],"cytotoxicity at 72 h, 0.25 mg/ml [9] [%]",inhibition at 215 µg/mL (L1210 [10]) [%],"cytotoxicity at 72 h, 0.21 mg/ml [11] [%]"
541,CC(=O)N[C@H]1[C@@H](OCc2ccccc2)O[C@H](CO)[C@@H](O)[C@@H]1OCC(=O)N[C@H](CO)C(=O)N[C@H](CCC(=O)NCCNc1ncnc2c1ncn2[C@@H]1O[C@H](CO)[C@@H](O)[C@H]1O)C(N)=O,479,570,2.1,31.6,64.95,,,,,,
1010,CC(=O)N[C@@H]1[C@@H](O[C@H](C)C(=O)N[C@H](C)C(=O)N[C@H](CCC(=O)O)C(N)=O)[C@H](O)[C@@H](CO)O[C@@H]1O,1010,1010,0.4,146,64.93,< 50,,,,,
537,CC(=O)N[C@H]1[C@@H](OCc2ccccc2)O[C@H](CO)[C@@H](O)[C@@H]1OCC(=O)N[C@@H](C)C(=O)N[C@H](CCC(=O)NCCCCCC(=O)Nc1ncnc2c1ncn2[C@@H]1O[C@H](CO)[C@@H](O)[C@H]1O)C(N)=O,537,537,0.4,178,70.64,< 50,,,,,
517,CC(=O)N[C@H]1[C@@H](OCc2ccccc2)O[C@H](CO)[C@@H](O)[C@@H]1O[C@H](C)C(=O)N[C@H](C)C(=O)N[C@H](CCC(=O)NCCNc1ncnc2c1ncn2[C@@H]1O[C@H](CO)[C@@H](O)[C@H]1O)C(N)=O,389,287,3.7,9.75,35.91,,,,,,
446,CC[C@@H](NC(=O)[C@@H](C)O[C@H]1[C@H](O)[C@@H](CO)O[C@H](OCc2ccccc2)[C@@H]1NC(C)=O)C(=O)N[C@H](CCC(=O)NCCNc1ncnc2c1ncn2[C@@H]1O[C@H](CO)[C@@H](O)[C@H]1O)C(N)=O,439,220,33.8,0.86,29.01,,,,,,
507,CC(=O)N[C@H]1[C@@H](OCc2ccccc2)O[C@H](CO)[C@@H](O)[C@@H]1O[C@H](C)C(=O)N1CCC[C@@H]1C(=O)N[C@H](CCC(=O)NCCNc1ncnc2c1ncn2[C@@H]1O[C@H](CO)[C@@H](O)[C@H]1O)C(N)=O,271,311,9.3,4.65,43.1,,,,,,
292,CC(=O)N[C@H]1[C@@H](OCc2ccccc2)O[C@H](CO)[C@@H](O)[C@@H]1O[C@H](C)C(=O)N[C@H](C(=O)N[C@H](CCC(=O)NCCNc1ncnc2c1ncn2[C@@H]1O[C@H](CO)[C@@H](O)[C@H]1O)C(N)=O)C(C)C,555,555,1.9,31.1,59.37,< 50,< 50,,,,
228,CC(=O)N[C@H]1[C@@H](OCc2ccccc2)O[C@H](CO)[C@@H](O)[C@@H]1O[C@H](C)C(=O)N[C@@H](C(=O)N[C@H](CCC(=O)O)C(N)=O)C(C)C,244,266,47.9,,39.72,,,0.83,< 50,,
363,CC(=O)N[C@H]1[C@@H](OCc2ccccc2)O[C@H](CO)[C@@H](O)[C@@H]1OCC(=O)N[C@H](C)C(=O)N[C@H](CCC(=O)O)C(N)=O,335,287,36.6,0.55,19.97,,,,,,
193,CC(=O)N[C@H]1[C@@H](OCc2ccccc2)O[C@H](CO)[C@@H](O)[C@@H]1OCC(=O)N[C@@H](C(=O)N[C@H](CCC(=O)O)C(N)=O)C(C)C,361,170,23.7,,26.6,< 50,,,,1.12,< 50
529,CC(=O)N[C@H]1[C@@H](OCc2ccccc2)O[C@H](CO)[C@@H](O)[C@@H]1O[C@H](C)C(=O)N[C@@H](C)C(=O)N[C@H](CCC(=O)NCCCCCC(=O)Nc1ncnc2c1ncn2[C@@H]1O[C@H](CO)[C@@H](O)[C@H]1O)C(N)=O,529,529,0.3,192,65.58,< 50,,,,,
1870,Nc1ncnc2c1ncn2[C@@H]1O[C@H](CO)[C@@H](O)[C@H]1O [ADENOSINE],1870,991,0.2,132,32.79,< 50,,,,,
290,CC(=O)N[C@H]1[C@@H](OCc2ccccc2)O[C@H](CO)[C@@H](O)[C@@H]1OCC(=O)N[C@H](CO)C(=O)N[C@H](CCC(=O)O)C(N)=O,858,314,19.3,0.76,14.68,< 50,,,,,
458,CC(=O)N[C@H]1[C@@H](OCc2ccccc2)O[C@H](CO)[C@@H](O)[C@@H]1O[C@H](C)C(=O)N[C@@H](C(=O)N[C@H](CCC(=O)NCCNc1ncnc2c1ncn2[C@@H]1O[C@H](CO)[C@@H](O)[C@H]1O)C(N)=O)C(C)C,234,161,-0.3,2.9,-0.87,,,,,,
497,CC(=O)N[C@H]1[C@@H](OCc2ccccc2)O[C@H](CO)[C@@H](O)[C@@H]1O[C@H](C)C(=O)N[C@H](CO)C(=O)N[C@H](CCC(=O)NCCNc1ncnc2c1ncn2[C@@H]1O[C@H](CO)[C@@H](O)[C@H]1O)C(N)=O,324,218,5.5,5.14,28.09,,,,,,
511,CC(=O)N[C@H]1[C@@H](OCc2ccccc2)O[C@H](CO)[C@@H](O)[C@@H]1OCC(=O)N1CCC[C@@H]1C(=O)N[C@H](CCC(=O)NCCNc1ncnc2c1ncn2[C@@H]1O[C@H](CO)[C@@H](O)[C@H]1O)C(N)=O,280,562,8.7,6.1,52.99,,< 50,,,,
506,CC[C@@H](NC(=O)CO[C@H]1[C@H](O)[C@@H](CO)O[C@H](OCc2ccccc2)[C@@H]1NC(C)=O)C(=O)N[C@H](CCC(=O)NCCNc1ncnc2c1ncn2[C@@H]1O[C@H](CO)[C@@H](O)[C@H]1O)C(N)=O,466,571,19.6,2.73,53.6,,< 50,,,,
512,CC(=O)N[C@H]1[C@@H](OCc2ccccc2)O[C@H](CO)[C@@H](O)[C@@H]1OCC(=O)N[C@@H](C(=O)N[C@H](CCC(=O)NCCNc1ncnc2c1ncn2[C@@H]1O[C@H](CO)[C@@H](O)[C@H]1O)C(N)=O)C(C)C,561,285,2.6,12.3,31.65,< 50,,,,,
500,CC(=O)N[C@H]1[C@@H](OCc2ccccc2)O[C@H](CO)[C@@H](O)[C@@H]1OCC(=O)N[C@H](C)C(=O)N[C@H](CCC(=O)NCCNc1ncnc2c1ncn2[C@@H]1O[C@H](CO)[C@@H](O)[C@H]1O)C(N)=O,298,270,44.7,0.67,29.84,,,,,,
